This is an account of results in patent US9949946B2, “Inclusion complexes of pinocembrin with cyclodextrin or its derivatives” (CSPC ZHONGQI PHARMACEUTICAL TECHNOLOGY (SHIJIAZHUANG) CO., …, priority 2008, dated 2018).

Bounds are passed on as bounds.

Series [1] can be described thus: Determination of the solubility of pinocembrin. Format: physicochemical. The settings on record: water. Here is the method: Through using cyclodextrin or its derivative to include pinocembrin and make pinocembrin molecules entrap in the tubular structure of cyclodextrin or its derivative, and therefore obtain the inclusion complex of pinocembrin with cyclodextrin or its derivative, the water-solubility of pinocembrin is enhanced greatly. […] The specific results are shown in Example 10.
In order to screen solubilizer, cosolvent and non-aqueous solvent useful for injection, a series of experiments were conducted with their general dosages respectively to determine the solubilization effect of pinocembrin.
The solubilities in Table 1 are the solubilities of pinocembrin.

Series [2] concerns MCAO operation-injured rats. Put plainly: MCAO model, rCBF of the rat acute cerebral ischemia tissue. The settings on record: 30 minutes after the cerebral ischemia, 3 mg/kg. Format: in vivo. Here is the method:
Assay Method: The assay was conducted according to the MCAO model method as reported in the literature (Zhang Juntian, Modern Experimental Methods in Pharmacology, October 1998, the First Edition, the United Press of Beijing Medical University and Peking Union Medical College).
The rCBF (regional cerebral blood flow) value in the cortex medium-sized arterial blood-supplying area reduced rapidly to 20˜30% of the pre-operation basal level because of the MCAO operation. 24 hours after ischemia (pre-decapitation), the collateral circulation compensation established and the rCBF value increased a little compared with the value during the operation, but still below 50% of the basal level.
30 minutes after the cerebral ischemia, the rCBF value of the vehicle group was 31.09±5.35% of the basal value, and the rCBF values of the administration groups, i.e., the inclusion complex DL0108 group (1 mg/kg, 3 mg/kg, 10 mg/kg) and the nimodipine group, were 40.76±6.58%, 50.09±7.09%, 53.28±8.03%, 55.58±6.09% of the basal value respectively. […] The DL0108 (3, 10 mg/kg) group and the nimodipine (3 mg/kg) group had significant differences from the vehicle group (P<0.05).

As a reminder, the solubility is the concentration that dissolves in the medium under given conditions. Read a high solubility as much dissolved substance. In series [1], `O=C1CC(c2ccccc2)Oc2cc(O)cc(O)c21` (centres unmarked) [pinocembrin, 2,3-Dihydro-5,7-dihydroxy-2-phenyl-4H-1-benzopyran-4-one] returned a solubility below 200 µg/mL.
For `COCCOC(=O)C1=C(C)NC(C)=C(C(=O)OC(C)C)C1c1cccc([N+](=O)[O-])c1` (centres unmarked) [nimodipine], the rCBF value in series [2] is 55.58±6.09 % of the basal value.
